Test results reported in patent US9907737B2, “Composition comprising ferulic acid ethyl ester and aryl alkanol” (L'AIR LIQUIDE, SOCIETE ANONYME POUR L'ETUDE ET …, priority 2013, dated 2018).
Marks after values point to notes of the source that are not given here.

Experiments:
[1] = test system: Staphylococcus aureus, Escherichia coli or Pseudomonas aeruginosa, Candida albicans, Aspergillus brasiliensis; assay: Bacterial count reduction test (method 1), summary in words over the test organisms; assay type: cell-based; conditions: Example 3, Table 4; o/w-Lotion; concentration of 2%
Description: (§1) Method 1: Bacterial Count Reduction Test
(§2) The aim of this bacterial count reduction test is to determine suitable preservatives and reaction times for samples injected in the laboratory.
(§3) Staphylococcus aureus, Escherichia coli or Pseudomonas aeruginosa, Candida albicans, Aspergillus brasiliensis
(§4) The samples are displaced with different concentrations of suitable preservatives. For each test bacterium a dilution series is required. The samples are injected individually with the respective test organism suspension and stirred well:
(§5) After the indicated reaction times the samples are firstly stirred homogenously with a sterile glass rod and then spread onto CSA or SA agar. The bacteria samples are spread onto CSA and incubated for 48 hours at 37° C. The mould and yeast samples are spread onto SA agar and incubated for 48 hours at 37° C. (Candida albicans) and at 25° C. (Aspergillus brasiliensis).

[2] = test system: A. brasiliensis ATCC: 16404; assay: Bacterial count reduction test (method 1), A. brasiliensis; assay type: cell-based, Aspergillus brasiliensis
Description: as §1, §2, §3
A 7 to 14 days old Aspergillus brasiliensis culture on SA agar (25° C.±1° C.) is washed with 5 ml physiological NaCl, filtered by a glass funnel with glass wool and filled with physiological NaCl to 100 ml. The titre of the Aspergillus brasiliensis suspension is about 10^7 CFU/ml.
(§6) The titres of the respectively produced test organism suspensions are determined by means of a dilution series in physiological NaCl and recorded.
as §4
(§7) 25 g samples=0.1 ml bacterial suspension
(§8) 50 g samples=0.2 ml bacterial suspension.
as §5

S. aureus ATCC: 6538 = assay: Bacterial count reduction test (method 1), S. aureus; assay type: cell-based, Staphylococcus aureus; conditions: o/w cream, initial bacterial count 1 × 10^9
Description: as §1, §2, §3
(§9) From a 24-hour CS-angular agar culture (I subculture) of Staphylococcus aureus/Escherichia coli 24-hour CSL-cultures (II subculture) are created. The incubation is carried out at 37° C. The titer of the bacterial suspension is about 10^9 CFU/ml.
as §6, §4, §7, §8, §5

E. coli ATCC: 11229 = assay: Bacterial count reduction test (method 1), E. coli; assay type: cell-based, Escherichia coli; conditions: o/w cream, initial bacterial count 1.3 × 10^9
Description: as §1, §2, §3, §9, §6, §4, §7, §8, §5

C. albicans ATCC: 10231 = assay: Bacterial count reduction test (method 1), C. albicans; assay type: cell-based, Candida albicans
Description: as §1, §2, §3
A 4 day old Candida albicans culture on SA-agar (II subculture) is washed with 5 ml physiological NaCl and adjusted according to a barium sulphate standard (cf. DVG Guidelines). The titer of the Candida albicans suspension is 10^8 CFU/ml.
as §6, §4, §7, §8, §5

[3] = o/w cream, initial bacterial count 1.5 × 10^7
[4] = o/w-Lotion, initial bacterial count 7.7 × 10^7
[5] = o/w cream, initial bacterial count 4.1 × 10^8
[6] = o/w-Lotion, initial bacterial count 5.4 × 10^8

With `COc1cc(/C=C/C(=O)O)ccc1O` [0.1% ferulic acid, ferulic acid] the “Effectiveness in bacterial count reduction test, in words” value [1] was “inherent effectiveness”, the “Growth of A. brasiliensis ATCC: 16404 after 24 hours” value [2, 3] was “++++ (Massive growth About 10^5)” and the “Growth of A. brasiliensis ATCC: 16404 after 72 hours” value [2, 3] was “++++ (Massive growth About 10^5)”. The “Growth of A. brasiliensis ATCC: 16404 after 168 hours” value [2, 3] was “++++ (Massive growth About 10^5)”, the “Growth of A. brasiliensis ATCC: 16404 after 336 hours” value [2, 3] was “++++ (Massive growth About 10^5)” and the “Growth of A. brasiliensis ATCC: 16404 after 24 hours” value [2, 4] was “++++ (Massive growth About 10^5)”. For the same molecule, the “Growth of A. brasiliensis ATCC: 16404 after 72 hours” value [2, 4] was “++++ (Massive growth About 10^5)”, the “Growth of A. brasiliensis ATCC: 16404 after 168 hours” value [2, 4] was “++++ (Massive growth About 10^5)” and the “Growth of A. brasiliensis ATCC: 16404 after 336 hours” value [2, 4] was “++++ (Massive growth About 10^5)”. The “Growth of S. aureus ATCC: 6538 after 24 hours” value (S. aureus ATCC: 6538; 24 h) was “R (Surface covered About 10^6)”, the “Growth of S. aureus ATCC: 6538 after 72 hours” value (S. aureus ATCC: 6538; 72 h) was “++++ (Massive growth About 10^5)” and the “Growth of S. aureus ATCC: 6538 after 168 hours” value (S. aureus ATCC: 6538; 168 h) was “++++ (Massive growth About 10^5)”. The “Growth of S. aureus ATCC: 6538 after 336 hours” value (S. aureus ATCC: 6538; 336 h) was “++++ (Massive growth About 10^5)”, the “Growth of E. coli ATCC: 11229 after 24 hours” value (E. coli ATCC: 11229; 24 h) was “++++ (Massive growth About 10^5)” and the “Growth of E. coli ATCC: 11229 after 72 hours” value (E. coli ATCC: 11229; 72 h) was “R (Surface covered About 10^6)”. The “Growth of E. coli ATCC: 11229 after 168 hours” value (E. coli ATCC: 11229; 168 h) was “R (Surface covered About 10^6)”, the “Growth of E. coli ATCC: 11229 after 336 hours” value (E. coli ATCC: 11229; 336 h) was “R (Surface covered About 10^6)” and the “Growth of C. albicans ATCC: 10231 after 24 hours” value (C. albicans ATCC: 10231; [5]) was “R (Surface covered About 10^6)”. For the same molecule, the “Growth of C. albicans ATCC: 10231 after 72 hours” value (C. albicans ATCC: 10231; [5]) was “R (Surface covered About 10^6)”, the “Growth of C. albicans ATCC: 10231 after 168 hours” value (C. albicans ATCC: 10231; [5]) was “++++ (Massive growth About 10^5)” and the “Growth of C. albicans ATCC: 10231 after 336 hours” value (C. albicans ATCC: 10231; [5]) was “++++ (Massive growth About 10^5)”. The “Growth of C. albicans ATCC: 10231 after 24 hours” value (C. albicans ATCC: 10231; [6]) was “R (Surface covered About 10^6)”, the “Growth of C. albicans ATCC: 10231 after 72 hours” value (C. albicans ATCC: 10231; [6]) was “R (Surface covered About 10^6)” and the “Growth of C. albicans ATCC: 10231 after 168 hours” value (C. albicans ATCC: 10231; [6]) was “++++ (Massive growth About 10^5)”. For the same molecule, the “Growth of C. albicans ATCC: 10231 after 336 hours” value (C. albicans ATCC: 10231; [6]) was “++++ (Massive growth About 10^5)”.
